Experimental data taken from US20260028352A1, “MACROCYCLIC IMIDAZO [1,2-B] PYRIDAZINE DERIVATIVE, PREPARATION METHOD THEREFOR, AND USE THEREOF” (SUZHOU LANGRUI BIOPHARMACEUTICAL CO., LTD., priority 2022, published 2026).

Legend:
Format in all cases: cell-based
[1] = system: Ba/F3-TPM3-NTRK1-G667C cells; assay: Growth inhibition of Ba/F3-TPM3-NTRK1-G667C cells (Cell Titer-Glo); conditions: 72 hours, CTG; read-out: inhibitory activity IC50 Ba/F3-TPM3-NTRK1-G667C
Protocol: (§1) Then the solutions were subjected to a gradient dilution with DMSO: a clean, sterile V-bottom 96-well microplate was placed in the biological safety cabinet. First, 4 μL of DMSO was added to well B2 and 10 μL of DMSO was added to wells B3-B11 respectively; Next, 6 μL of the 10 mM solution was added to well B2. The microplate was pipetted up and down 10 times for mixing. […] Mixing was performed by pipetting up and down 10 times. The solution was diluted in order until well B10. only DMSO was added to well B11 (no compound).
(§2) 6× Compound Solution Preparation (6-fold dilution, × represents dilution factor): (Initial final concentration: 10 μM), a clean, sterile V-bottom 96-well microplate was placed in the biological safety cabinet. 99 μL of cell culture medium was added to each well from B2 to G11. By using a 12-channel pipettor, 1 μL of the compound solution prepared in the previous step was added into the corresponding wells. The solutions were pipetted up and down 10 times to mix the solutions. The highest concentration of compound in this step was 60 μM.
(§3) Treatment of Cells: the above-prepared cell culture plate was taken out of the incubator. 20 μL of compound solution from each well was added to the corresponding cell culture wells. The lowest pipetting speed was used and touching the bottom of the plate was avoided. The culture plate was gently shaked to mix the compound solution, then the plate was returned to the incubator for further culture for 72 hours.
(§4) The highest treatment concentration of the compound was 10 μM. After 72 hours of treatment, the Cell Titer-Glo (CTG) assay was performed. First, the cell culture plate was removed from the CO2 incubator and allowed to stand at room temperature for 30 minutes to ensure uniform temperature of the plate. The pre-prepared Cell Titer-Glo reagent (following the manufacturer's instructions) was taken and allowed to stand at room temperature to thaw. 60 μL of Cell Titer-Glo reagent was added to each well containing cells. The cells were incubated on a horizontal shaker in a dark place at 225 rpm for 1 hour at room temperature. Then, a Tecan Spark microplate reader was used to read the plate using chemiluminescence according to the manufacturer's instructions.

[2] = system: Ba/F3-TPM3-NTRK1-G595R cells; assay: Growth inhibition of Ba/F3-TPM3-NTRK1-G595R cells (Cell Titer-Glo); conditions: 72 hours, CTG; read-out: inhibitory activity IC50 Ba/F3-TPM3-NTRK1-G595R
Protocol: as §1, §2, §3, §4

[3] = system: Ba/F3-TPM3-NTRK1-WT cells; assay: Growth inhibition of Ba/F3-TPM3-NTRK1-WT cells (Cell Titer-Glo); conditions: 72 hours, CTG; read-out: inhibitory activity IC50 Ba/F3-TPM3-NTRK1-WT
Protocol: as §1, §2, §3, §4

| Structure (SMILES) | IC50 [1] [nM] | IC50 [2] [nM] | IC50 [3] [nM] |
| --- | --- | --- | --- |
| CC1Nc2ccc3ncc(n3n2)-c2cc(ncn2)CCOc2ccccc21 (stereo not drawn) [Example I-11, […]] | 419 | 419 | 2.5 |
| Fc1cnc2c(c1)[C@H]1C[C@H](F)CN1c1ccc3ncc(n3n1)-c1cc(ncn1)CCO2 [Example I-72, (3^2R,3^4S,E)-3^4,4^5-difluoro-5-oxa-2(3,6)-imidazo[1,2-b]pyridazina-1(4,6)-pyrimidina-4(3,2)-pyridina-3(1,2)-pyrrolidinacycloheptaphane] | 7.4 | 1.5 | 0.07 |
| Fc1ccc2c(c1)[C@H]1C[C@H](F)CN1c1ccc3ncc(n3n1)-c1nccc(n1)CCO2 [Example I-86, (3^2R,3^4S,E)-3^4,4^5-difluoro-5-oxa-2(3,6)-imidazo[1,2-b]pyridazina-1(2,4)-pyrimidina-3(1,2)-pyrrolidina-4(1,2)-benzenacycloheptaphane] | 13.9 | 2.3 | 0.25 |
| CC1Nc2ccc3ncc(n3n2)-c2cc(ncn2)COc2ccccc21 (stereo not drawn) [Example I-10, (E)-6-methyl-4-oxa-7-aza-1(3,6)-imidazo[1,2-b]pyridazina-2(4,6)-pyrimidine-5(1,2)-benzenacycloheptaphane] | 378 | 378 | 4.6 |
| Fc1cnc2c(c1)[C@H]1C[C@H](F)CN1c1ccc3ncc(n3n1)-c1nccc(n1)CO2 [Example I-64, (14bR,16S,E)-13,16-difluoro-14b,15,16,17-tetrahydro-9H-4,8-(azeno)-1,19-ethenoimidazo[1,5-h]pyrido[2,3-b]pyrrolo[2,1-d][1]oxa[5,7,8,11]tetraazacyclopentadecine] | 8.5 | 0.9 | 0.3 |
| Fc1ccc2c(c1)[C@H]1C[C@H](F)CN1c1ccc3ncc(n3n1)-c1cc(ncn1)CCO2 [Example I-70, (3^2R,3^4S,E)-3^4,4^5-difluoro-5-oxa-2(3,6)-imidazo[1,2-b]pyridazina-1(4,6)-pyrimidina-3(1,2)-pyrrolidina-4(1,2)-benzenacycloheptaphane] | 4.6 | 1.1 | 0.12 |
| Fc1ccc2c(c1)[C@H]1C[C@H](F)CN1c1ccc3ncc(n3n1)-c1cc(cnn1)CCO2 [Example I-92, (3^2R,3^4S,E)-3^4,4^5-difluoro-5-oxa-2(3,6)-imidazo[1,2-b]pyridazina-1(3,5)-pyridazina-3(1,2)-pyrrolidina-4(1,2)-benzenacycloheptaphane] | 4.3 | 0.6 | 0.18 |
| Fc1cnc2c(c1)[C@H]1C[C@H](F)CN1c1ccc3ncc(n3n1)-c1cc(ccn1)CCO2 [Example I-56, (3^2R,3^4S,E)-3^4,4^5-difluoro-5-oxa-2(3,6)-imidazo[1,2-b]pyridazina-1(2,4), 4(3,2)-dipyridina-3(1,2)-pyrrolidinacycloheptaphane] | 9.4 | 0.9 | 0.2 |
| Fc1ccc2c(c1)[C@H]1C[C@H](F)CN1c1ccc3ncc(n3n1)-c1nccc(n1)CO2 [Example I-62, (14bR,16S,E)-13,16-difluoro-14b,15,16,17-tetrahydro-9H-4,8-(azeno)-1,19-ethenobenzo[b]imidazo[1,5-h]pyrrolo[2,1-d][1]oxa[5,7,8,11]tetraazacyclopentadecine] | 13.6 | 0.7 | 0.21 |
| C[C@@H]1CCc2ncc(F)cc2[C@H]2CCCN2c2ccn3ncc(c3n2)C(=O)N1 [LOXO-195, reference compound] | 169 | 10 | 3.07 |
| CC1Nc2ccc3ncc(n3n2)-c2cc(ccn2)CCOc2ccccc21 (stereo not drawn) [Example I-9, (E)-4-methyl-6-oxa-3-aza-2(3,6)-imidazo[1,2-b]pyridazina-1(2,4)-pyridina-5(1,2)-benzenacyclooctaphane] | 308 | 297 | 11 |
| Fc1cnc2c(c1)[C@H]1C[C@H](F)CN1c1ccc3ncc(n3n1)-c1cc(ncn1)CO2 [Example I-60, (14bR,16S,E)-13,16-difluoro-14b,15,16,17-tetrahydro-9H-1,19-etheno-4,8-(metheno)imidazo[5,1-h]pyrido[3,2-n]pyrrolo[1,2-l][1]oxa[4,6,9,10,12]pentaazacyclopentadecine] | 22.5 | 2.5 | 0.13 |
| Fc1ccc2c(c1)[C@H]1C[C@H](F)CN1c1ccc3ncc(n3n1)-c1cc(ncn1)CO2 [Example I-58, (14bR,16S,E)-13,16-difluoro-14b,15,16,17-tetrahydro-9H-1,19-etheno-4,8-(metheno)benzo[n]imidazo[5,1-h]pyrrolo[1,2-l][1]oxa[4,6,9,10,12]pentaazacyclopentadecine] | 12.7 | 2.1 | 0.14 |

The next molecules have a lower IC50 [1] than those just listed; values first:

| IC50 [1] [nM] | IC50 [2] [nM] | IC50 [3] [nM] | Structure (SMILES) |
| --- | --- | --- | --- |
| 2.5 | 1 | 0.09 | Fc1cnc2c(c1)[C@H]1C[C@H](F)CN1c1ccc3ncc(n3n1)-c1cc(cnn1)CCO2 [Example I-94, (3^2R,3^4S,E)-3^4,4^5-difluoro-5-oxa-2(3,6)-imidazo[1,2-b]pyridazina-1(3,5)-pyridazina-4(3,2)-pyridina-3(1,2)-pyrrolidinacycloheptaphane] |
| 3.7 | 1.4 | 0.11 | C[C@H]1Cc2ccnc(n2)-c2cnc3ccc(nn23)N2C[C@@H](F)C[C@@H]2c2cc(F)cnc2O1 [Example I-96, (3^2R,3^4S,6S,E)-3^4,4^5-difluoro-6-methyl-5-oxa-2(3,6)-imidazo[1,2-b]pyridazina-1(2,4)-pyrimidina-4(3,2)-pyridina-3(1,2)-pyrrolidinacycloheptaphane] |
| 2.8 | 1.6 | 0.06 | Fc1cnc2c(c1)[C@H]1C[C@H](F)CN1c1ccc3ncc(n3n1)-c1cc(cnn1)CO2 [Example I-68, (14bR,16S,E)-13,16-difluoro-14b,15,16,17-tetrahydro-9H-1,19-etheno-4,8-(metheno)imidazo[5,1-h]pyrido[3,2-n]pyrrolo[1,2-l][1]oxa[5,6,9,10,12]pentaazacyclopentadecine] |
| 0.3 | 0.2 | 0.1 | Fc1ccc2c(c1)[C@H]1C[C@H](F)CN1c1ccc3ncc(n3n1)-c1cc(ccn1)CO2 [Example I-50, (14bR,16S,E)-13,16-difluoro-14b,15,16,17-tetrahydro-9H-1,19-etheno-4,8-(metheno)benzo[b]imidazo[1,5-h]pyrrolo[2,1-d][1]oxa[5,7,8,11]tetraazacyclopentadecine] |
| 0.1 | 0.1 | 0.01 | C[C@@H]1Cc2ccnc(c2)-c2cnc3ccc(nn23)N2C[C@@H](F)C[C@@H]2c2cc(F)cnc2O1 [Example I-40, (3^2R,3^4S,6R,E)-3^4,4^5-difluoro-6-methyl-5-oxa-2(3,6)-imidazo[1,2-b]pyridazina-1(2,4),4(3,2)-dipyridina-3(1,2)-pyrrolidinacycloheptaphane] |
| 1.3 | 0.4 | 0.05 | Fc1ccc2c(c1)[C@H]1C[C@H](F)CN1c1ccc3ncc(n3n1)-c1cc(cnn1)CO2 [Example I-66, (14bR,16S,E)-13,16-difluoro-14b,15,16,17-tetrahydro-9H-1,19-etheno-4,8-(metheno)benzo[n]imidazo[5,1-h]pyrrolo[1,2-l][1]oxa[5,6,9,10,12]pentaazacyclopentadecine] |
| 2.1 | 0.4 | 0.18 | Fc1ccc2c(c1)[C@H]1C[C@H](F)CN1c1ccc3ncc(n3n1)-c1cc(ccn1)CCO2 [Example I-54, (3^2R,3^4S,E)-3^4,4^5-difluoro-5-oxa-2(3,6)-imidazo[1,2-b]pyridazina-1(2,4)-pyridina-3(1,2)-pyrrolidina-4(1,2)-benzenacycloheptaphane] |
| 0.3 | 0.1 | 0.01 | C[C@@H]1Cc2ccnc(c2)-c2cnc3ccc(nn23)N2C[C@@H](F)C[C@@H]2c2cc(F)ccc2O1 [Example I-39, (3^2R,3^4S,6R,E)-3^4,4^5-difluoro-6-methyl-5-oxa-2(3,6)-imidazo[1,2-b]pyridazina-1(2,4)-pyridina-3(1,2)-pyrrolidina-4(1,2)-benzenacycloheptaphane] |
